Data as given in paper PMC8840488, “Antidiabetic Activity and In Silico Molecular Docking of Polyphenols from Ammannia baccifera L. subsp. Aegyptiaca (Willd.) Koehne Waste: Structure Elucidation of Undescribed Acylated Flavonol Diglucoside” (Plants, 2022).

Assays:
DPPH antioxidant assay = assay: DPPH antioxidant assay
Procedure: The assay was carried out for AEEE and isolated phenolics according to Brand-Williams et al..

ORAC antioxidant assay = assay: ORAC antioxidant assay
From the text: The antioxidant assay was applied to AEEE and the isolated phenolics.

α-amylase = target: T1, α-amylase (Homo sapiens, UniProt P04746); assay: In vitro α-amylase inhibition; assay type: biochemical; conditions: for IC50: concentration range 75–600 µg/mL
T1 construct: purchased Sigma-Aldrich (Merck, Darmstadt, Germany)
T1 sequence (P04746 16-511): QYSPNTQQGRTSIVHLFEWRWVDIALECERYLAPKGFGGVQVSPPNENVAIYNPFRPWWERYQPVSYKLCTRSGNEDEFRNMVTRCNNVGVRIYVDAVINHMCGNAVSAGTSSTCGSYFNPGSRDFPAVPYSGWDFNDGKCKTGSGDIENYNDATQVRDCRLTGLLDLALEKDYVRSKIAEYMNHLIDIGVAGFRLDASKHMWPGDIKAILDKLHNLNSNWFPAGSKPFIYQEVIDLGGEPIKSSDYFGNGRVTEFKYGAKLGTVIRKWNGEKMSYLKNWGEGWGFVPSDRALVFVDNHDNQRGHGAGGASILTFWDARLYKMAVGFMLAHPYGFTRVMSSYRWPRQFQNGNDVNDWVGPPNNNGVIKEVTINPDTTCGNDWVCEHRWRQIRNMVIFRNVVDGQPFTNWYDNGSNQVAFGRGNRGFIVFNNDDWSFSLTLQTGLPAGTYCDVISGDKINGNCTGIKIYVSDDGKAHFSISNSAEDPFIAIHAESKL
From the text: The assay was implemented in accordance with. […] The percentage of inhibition can be estimated using the following Equation: 100−[{A sample/ Acontrol ×100]

pancreatic lipase = target: T2, pancreatic lipase (Homo sapiens, UniProt P16233); assay: In vitro pancreatic lipase inhibition; assay type: biochemical; conditions: for IC50: concentration range 12–100 µg/mL
T2 sequence (P16233 17-465): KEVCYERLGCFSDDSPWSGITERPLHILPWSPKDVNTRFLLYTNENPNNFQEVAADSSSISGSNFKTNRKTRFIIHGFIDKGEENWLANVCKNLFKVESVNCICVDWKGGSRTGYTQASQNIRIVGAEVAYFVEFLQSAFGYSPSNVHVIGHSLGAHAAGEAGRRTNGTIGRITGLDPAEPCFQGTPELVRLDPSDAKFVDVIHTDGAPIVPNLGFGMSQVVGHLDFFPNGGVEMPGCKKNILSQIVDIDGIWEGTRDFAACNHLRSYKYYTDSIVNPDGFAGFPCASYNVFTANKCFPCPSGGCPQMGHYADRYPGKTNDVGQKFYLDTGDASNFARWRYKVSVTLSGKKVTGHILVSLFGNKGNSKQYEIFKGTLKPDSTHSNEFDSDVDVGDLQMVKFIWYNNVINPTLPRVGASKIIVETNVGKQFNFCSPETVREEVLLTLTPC
Procedure: The determination of the percentage inhibition of pancreatic lipase was calculated as prescribed by Hegazi et al., using the same formula for amylase.

β-glucosidase = assay: In vitro β-glucosidase inhibition; assay type: biochemical; conditions: for β-glucosidase IC50: concentration range 75–600 µg/mL
Procedure: The assay was performed in conformity with and used the same formula for amylase.

Reducing power assay = assay: Reducing power assay
Procedure: In the reducing-power assay, the more antioxidant compounds convert the oxidated form of iron (Fe^+3) in ferric chloride to ferrous (Fe^+2), which leads to an increase in colored ferrous-TPTZ complexes.
The assay was carried out on AEEE and the isolated phenolics (DeGraft-Johnson et al., 2007).

C[C@@H]1O[C@@H](OC[C@H]2O[C@@H](Oc3c(-c4ccc(O)cc4)oc4cc(O)cc(O)c4c3=O)[C@H](O)[C@@H](O)[C@@H]2O)[C@H](O)[C@H](O)[C@H]1O [Compound 2, kaempfeol 3-O-rutinoside]
DPPH IC50 (DPPH antioxidant assay): > 100 ± 13.67 µg/mL | ORAC IC50 (ORAC antioxidant assay): > 100 ± 10.17 µg/mL | inhibition at 300 µg/mL (α-amylase): 80.4 ± 3.81% | IC50 (α-amylase): 348 µM | inhibition at 100 µg/mL (pancreatic lipase): 35.8 ± 3.84% | IC50 (pancreatic lipase): 228 µM

O=C(O[C@H]1[C@H](O)[C@@H](CO)OC(O)[C@@H]1OC(=O)c1cc(O)c(O)c(O)c1)c1cc(O)c(O)c(O)c1 (stereo partly drawn) [Compound 5, 2,3-α, β-digalloy glucose]
DPPH IC50 (DPPH antioxidant assay): 4.81 ± 0.73 µg/mL | ORAC IC50 (ORAC antioxidant assay): 4.43 ± 0.68 µg/mL | inhibition at 300 µg/mL (α-amylase): 78 ± 1.15% | IC50 (α-amylase): 448 µM | inhibition at 100 µg/mL (pancreatic lipase): 18.7 ± 3.1% | IC50 (pancreatic lipase): 549 µM | β-glucosidase % Inhibition (β-glucosidase; at 300 µg/mL): 68.43 ± 2.30 % | β-glucosidase IC50 (β-glucosidase): 100.23 ± 3.80 µg/mL

C[C@@H]1O[C@@H](OC[C@H]2O[C@@H](Oc3c(-c4ccc(O)c(O)c4)oc4cc(O)cc(O)c4c3=O)[C@H](O)[C@@H](O)[C@@H]2O)[C@H](O)[C@H](O)[C@H]1O [Compound 3, quercetin 3-O-rutinoside]
DPPH IC50 (DPPH antioxidant assay): 8.81 ± 1.05 µg/mL | ORAC IC50 (ORAC antioxidant assay): 8.02 ± 0.85 µg/mL | inhibition at 300 µg/mL (α-amylase): 72.1 ± 3.49% | IC50 (α-amylase): 366 µM | inhibition at 100 µg/mL (pancreatic lipase): 82.2 ± 2.53% | IC50 (pancreatic lipase): 66.2 µM | β-glucosidase % Inhibition (β-glucosidase; at 300 µg/mL): 66 ± 3.47 % | β-glucosidase IC50 (β-glucosidase): 104 ± 3.80 µg/mL

C[C@H]1O[C@H](O[C@H]2[C@H](O)[C@@H](O)[C@@H](O[C@H]3[C@H](O)[C@@H](O)C(O)O[C@@H]3CO)O[C@@H]2CO)[C@H](O)[C@@H](O)[C@@H]1N[C@H]1C=C(CO)[C@@H](O)[C@H](O)[C@H]1O (stereo partly drawn) [Acarbose, reference compound]
β-glucosidase % Inhibition (β-glucosidase; at 600 µg/mL): 95.2 ± 2.30% | β-glucosidase IC50 (β-glucosidase): 110.6 ± 3.20 µg/mL

O=C(OC[C@H]1O[C@@H](Oc2c(-c3cc(O)c(O)c(O)c3)oc3cc(O[C@@H]4O[C@H](CO)[C@@H](O)[C@H](O)[C@H]4O)cc(O)c3c2=O)[C@H](O)[C@@H](O)[C@@H]1O)c1cc(O)c(O)c(O)c1 [Compound 1, myricetin 3-O-β-^4C1-(6′′-O-galloyl glucopyranoside)-7-O-β-^4C1-glucopyranoside]
DPPH IC50 (DPPH antioxidant assay): 2.37 ± 0.56 µg/mL | ORAC IC50 (ORAC antioxidant assay): 2.01 ± 0.23 µg/mL | inhibition at 300 µg/mL (α-amylase): 91.4 ± 2.45% | IC50 (α-amylase): 198 µM | inhibition at 100 µg/mL (pancreatic lipase): 87 ± 2.38% | IC50 (pancreatic lipase): 40.3 µM | Ferrous reducing assay IC50 (Reducing power assay): 158.13 ± 2.82 µg/mL | Reducing power (Reducing power assay; compared with quercetin as standard): comparable to that of standard quercetin | β-glucosidase % Inhibition (β-glucosidase; at 300 µg/mL): 92.70 ± 1.42 % | β-glucosidase IC50 (β-glucosidase): 72.77 ± 2.67 µg/mL

CCCCCCCCCCC[C@@H](C[C@@H]1OC(=O)[C@H]1CCCCCC)OC(=O)[C@H](CC(C)C)NC=O [Orlistat, reference compound]
inhibition at 100 µg/mL (pancreatic lipase): 57 ± 4.5%

Cc1c(C)c2c(c(C)c1O)CCC(C)(C(=O)O)O2 (stereo not drawn) [Trolox, reference compound]
ORAC IC50 (ORAC antioxidant assay): 28.0 ± 14.31 µg/mL

O=C(O[C@@H]1[C@@H](OC(=O)c2cc(O)c(O)c(O)c2)[C@H](O)O[C@@H]2COC(=O)c3cc(O)c(O)c(O)c3-c3c(cc(O)c(O)c3O)C(=O)O[C@@H]12)c1cc(O)c(O)c(O)c1 [Compound 4, tellimagranidine-I]
DPPH IC50 (DPPH antioxidant assay): 4.64 ± 0.39 µg/mL | ORAC IC50 (ORAC antioxidant assay): 4.14 ± 1.27 µg/mL | inhibition at 300 µg/mL (α-amylase): 78.9 ± 4.13% | IC50 (α-amylase): 276 µM | inhibition at 100 µg/mL (pancreatic lipase): 19.5 ± 4.36% | IC50 (pancreatic lipase): 343 µM | β-glucosidase % Inhibition (β-glucosidase; at 300 µg/mL): 58.44 ± 3.61 % | β-glucosidase IC50 (β-glucosidase): 115.21 ± 4.90 µg/mL

O=C1O[C@H]([C@@H](O)CO)C(O)=C1O [Vitamin C, reference compound]
DPPH IC50 (DPPH antioxidant assay): 1.83 ± 1.41 µg/mL
